This note sets out measurements from paper PMC6892925, “Development of Novel Silyl Cyanocinnamic Acid Derivatives as Metabolic Plasticity Inhibitors for Cancer Treatment” (Scientific Reports, 2019).

“Also recorded” adds a separate entry of the source.

What all share (assay type): cell-based, human
The subject of assay [1] is WiDr cells. The experiment in a line: Mitotracker Red CMXROS fluorescent microscopy. The settings on record: 30 μM, 24-hour exposure. The method, then:
(§1) To evaluate the effects on mitochondrial morphology and vitality, Mitotracker Red CMXROS (MTR) fluorescence imaging experiments were employed. […] Furthermore, differential interference contrast (DIC) microscope images illustrate substantial membrane blebbing and vesiculation in compound treated cultures (Fig. 6).
(§2) MDA-MB-231 or WiDr cells (5 × 10^4 cells/mL) were seeded in glass-bottom dishes (MatTek Corp, part no. P35G010C) and incubated for 48 hours. Test compound (30 μM) was added and cells were again incubated for 24 hours prior to fluorescent microscopic imaging. In some cultures, MitoTracker Red CMXROS (Invitrogen, M7512, 100 nM) was added 15 min prior to imaging. The growth media was removed and replaced with 5% FBS in 1X PBS for imaging. Cells were then examined and photographed using a Nikon TE2000 epifluorescent microscope and camera. The images shown are representative of at least 3 fields of view of three separate experiments.

The subject of assay [2] is MDA-MB-231 cells. The experiment in a line: Mitotracker Red CMXROS fluorescent microscopy. To be noted: 30 μM, 24-hour exposure. As to the method:
as §1, §2

The test system of assay [3] is WiDr cells. The experiment in a line: Western blot analysis of cell damage and death markers. To be noted: WiDr. As to the method:
(§3) Owing to the enhanced antiproliferative effects induced by test compound 2a when compared to CHC, western blot analysis of cell damage and death markers was performed. The master transcription factor p53 regulates the expression of numerous genes involved in cancer progression and is responsible for balancing proliferation and apoptosis. In this regard, we evaluated the effects of compound treatment on p53 expression. Literature reports indicate that MDA-MB-231 and WiDr cells express distinct homozygous mutant forms of p53 that promote an aggressive malignant phenotype with resistance to apoptosis[36],[37]. […] Further, PARP1 is involved in the DNA repair pathway through sensing DNA-strand breaks and recruiting repair enzymes. Importantly, PARP1 is a target of caspase cleavage under apoptotic conditions, and the appearance of the PARP1 cleavage product is a widely used indicator of cellular apoptosis. […] Additionally, DNA damage may be a downstream effect of apoptotic nuclease activity or an increase in reactive oxygen species (ROS) from damaged mitochondria; as illustrated in microscopy and seahorse experiments. Histone 2AX phosphorylation (γH2AX) resulting from DNA single- and double-strand breaks is a widely employed marker for DNA damage. In this regard, we investigated the effect of 2a on DNA damage marker γH2AX (phosphorylated Ser139, histone H2AX) with a phospho-specific antibody. […] Due to the potential of ROS leading to DNA damage and H2AX phosphorylation, we investigated the ability of antioxidant N-acetyl cysteine (NAC) to inhibit DNA damage of compound 2a as evidenced by H2AX phosphorylation in the highly oxidative cell line WiDr (Fig. 4A).
(§4) 50,000 WiDr or MDA-MB-231 cells were seeded in 100 mm dishes and were incubated for 48 hours. Cells were then treated with test compounds for 24 hours, washed twice with 1X PBS, solubilized in 200 μL SDS boiling buffer (5% w/v SDS, 10% v/v glycerol, and 60 mM Tris pH 6.8), and sonicated. The resulting cell lysate was then assayed for protein using the Pierce BCA protocol. A volume of test sample containing 10 μg protein was loaded on SDS PAGE gel for electrophoresis according to manufacturer’s instructions. Proteins were transferred from the gel to nitrocellulose membrane according to the manufacturer’s instructions. Membranes were blocked for 1 hr at 35 °C using 10% (w/v) non-fat milk in PBST and were exposed to primary antibody. PARP1 (rabbit polyclonal IgG, Origene, TA321555), p53 (rabbit polyclonal IgG, Santa Cruz, sc50329), and γ-H2AX (Upstate 05-636, 1:2500) were detected and visualized using HRP chemiluminescence. For relative quantitation, β-actin (mouse monoclonal IgG C4, Millipore, MAB1501, 1:10,000) and GAPDH (mouse monoclonal IgG, Santa Cruz, sc47724, 1:100) were detected and measured as a control protein.

In assay [4] the test system is MDA-MB-231 cells. Described as above. As to the method: as §3, §4

Take `CC(C)(C)[Si](Oc1ccc(/C=C(\C#N)C(=O)O)cc1)(c1ccccc1)c1ccccc1` [2a]: the “MTR fluorescence / mitochondrial morphology” value in the assay with WiDr cells [1] was “more diffuse and dim general cytoplasmic fluorescence; also recorded: substantial redistribution of MTR”; in the assay on MDA-MB-231 cells [2] it was “more diffuse and dim general cytoplasmic fluorescence; also recorded: substantial redistribution of MTR”. Also, the PARP1 cleavage result in the assay with WiDr cells [3] (100 μM, 24 hours) is “induced PARP1 cleavage”; in the assay on MDA-MB-231 cells [4] (100 μM, 24 hours), “induced PARP1 cleavage”. Also, the “expression of γH2AX (DNA damage marker)” value is listed as “substantial increases” in the assay with WiDr cells [3] (100 μM, 24 hours) and “substantial increases” in the assay on MDA-MB-231 cells [4] (100 μM, 24 hours). For the same molecule, the p53 expression result in the assay on WiDr cells [3] (24 hours treatment) is reported as “not in WiDr”; in the assay on MDA-MB-231 cells [4] (24 hours treatment), “increase in p53 expression”.
